{
  "source": "patent US10111901B2",
  "about": "“Beta-glucan in combination with anti-cancer agents affecting the tumor microenvironment” (Biothera, Inc., priority 2014, dated 2018)",
  "key": {"CD4 T cells": {"system": "CD4 T cells", "experiment": "Mac-CD4 T co-culture surface marker modulation on T cells", "format": "cell-based, human", "experimental": "For evaluation of Mac-CD4 T cell surface marker modulation, M2 macrophages were co-cultured with T cells as described above and cells were harvested on day 8, day 9 and day 10 to perform surface receptor staining on both M2 macrophages and T cells.\nChanges in surface marker expression on both macrophages and CD3 & CD28-stimulated T cells were also measured. Vehicle- and β-glucan-treated M2 macrophages and CD T cells from the co-cultures were evaluated by flow cytometry for the modulation of co-stimulatory or co-inhibitory molecules. FIG. 8C and Table 9 are representative results from 2 different experiments."}, "[1]": {"system": "tumor cell lines, including NSCLC, breast, pancreatic, colon, and B cell lymphoma", "experiment": "PD-L1 expression on tumor cell lines incubated with supernatant of M2 macrophage/MoDC and T cell co-culture", "format": "cell-based", "conditions": "supernatants of proliferation assays, 48 hours", "experimental": "M2 macrophages and MoDC were prepared as described above. The macrophages and the MoDC were subsequently used in T cell proliferation assays as described previously. The supernatants from these proliferation assays were harvested and incubated with various tumor cell lines, including NSCLC, breast, pancreatic, colon, and B cell lymphoma. The expression of PD-L1 on these tumor cell lines were evaluated post 48 hours by flow cytometry. Shown in FIG. 15 are representative results from 3 different experiments."}, "M1 macrophages": {"system": "M1 macrophages", "experiment": "Flow cytometry of M1/M2-specific markers on M1 macrophages derived from vehicle- or β-glucan-treated whole blood", "format": "cell-based, human", "experimental": "(§1) CD14^+ monocytes from human whole blood were enriched using Ficoll gradient and magnetic bead separation. Enriched monocytes (5×10^5 cells per mL) were then cultured in either M1-polarizing (XVivo 10 media (Lonza Group) supplemented with 5% autologous serum and 100 ng/mL recombinant human granulocyte macrophage colony-stimulating factor (rhGM-CSF) (R&D Systems) or M2-polarizing (XVivo 10 media supplemented with 10% autologous serum and 50 ng/mL recombinant human macrophage colony-stimulating factor (rhM-CSF) (R&D Systems) conditions for 6 days. In experiments performed to evaluate the effect of β-glucan, whole blood was first incubated with vehicle (sodium citrate buffer) or 25 μg/mL soluble β-glucan for 2 hours at 37° C. and then the monocytes were isolated and differentiated. Morphology was checked before macrophages were harvested for phenotypic analysis. Culture medium of the day 6 macrophage culture (MCM) was collected, spun down to remove contaminated cell pellet and then frozen down for subsequent cytokine analysis by ELISA or used to setup a co-culture with CD3 & CD28-stimulated CD4 T cells (MCM-CD4 T) for evaluation of either surface markers or CD4 T cell proliferation. The macrophages were used to setup a co-culture with CD3 & CD28- or CD3 only-stimulated CD4 T cells (Mac-CD4 T) on day 6 for evaluation of either surface marker modulation or effect on CD4 T cell proliferation. For Mac-CD4 T cell proliferation study, M1 or M2 macrophages were cultured with CD3 & CD28- or CD3 only-stimulated, CFSE-labeled, autologous CD4 T cells at a 1:10 ratio. T cell proliferation was measured at the end of the experiment (day 9-day 11) by flow cytometry, and results are graphically shown as CFSE-dilution peaks. The assessment of CD3-only stimulated T cells was always done on day 11. Quantitative results were reported as the Division Index (the average number of cell divisions a population underwent) calculated for each of the triplicate wells in each of the culture conditions. Culture supernatants of Mac-CD4 T co-cultures were collected for subsequent cytokine analysis.\nM1 and M2 macrophages from vehicle- or β-glucan-treated whole blood were prepared as described above. […] In addition, surface expression of CD86 was enhanced as well as both protein and mRNA levels of PD-L1 (FIG. 2B).\nExpression of a panel of markers was evaluated by flow cytometry for vehicle- and β-glucan-treated, high binder-derived M1 and M2 macrophages (CD163 was evaluated twice).\nCD163 and CD86 were evaluated by flow cytometry for vehicle- and β-glucan-treated, low binder-derived M1 and M2 macrophages."}, "MC38 tumor cells": {"system": "MC38 tumor cells", "experiment": "MC38 tumor model, tumor-free survival", "format": "in vivo", "conditions": "C57BL/6 mice, MC38 s.c.; biweekly from day 3; 1.2 mg/mouse IMPRIME PGG, 100 μs/mouse anti-PDL-1; survivors/group size", "experimental": "In another animal study, mice were injected with MC38 tumor cells and randomized into treatment groups. 8 to 12 week-old female C57BL/6 mice were injected with 1×10^6 MC38 tumor cells, a colon adenocarcinoma that expresses low levels of PD-L1, in a volume of 0.1 ml injected subcutaneously in the flank. Mice were dosed biweekly starting on day 3 with the following agents: • 0.2 ml/mouse vehicle • 1.2 mg/mouse IMPRIME PGG (Biothera, Inc.) • 100 μs/mouse anti-PDL-1 Clone: 10F.9G2 BioXcell Catalog#: BE0101\nBlood samples were collected 1 hour prior to dose 1, 2 hours after dose 3, the endpoint and 2 hours after the last dose (day 20). Treatment groups included vehicle (PBS control), IMPRIME PGG alone, anti-PD-L1 antibody alone and anti-PD-L1+IMPRIME PGG. Tumors were randomized to treatment groups once sizes reached a group mean of 150 mm^3."}, "MiaPaCa": {"system": "MiaPaCa", "experiment": "PD-L1 upregulation in MiaPaCa tumor cells by treated M2 macrophages", "format": "cell-based", "experimental": "β-glucan- and vehicle-treated M2 macrophages and β-glucan-treated M2 macrophages+ABA were cultured with high binder serum and low binder serum to evaluate PD-L1 expression on tumor cells."}, "IFN-γ": {"system": "IFN-γ", "experiment": "IFN-γ ELISA of co-culture supernatants", "format": "cell-based, human", "experimental": "as §1\nThe culture supernatants from the CFSE dilution T-cell proliferation assay (FIG. 2B) were also measured for IFN-gamma levels by ELISA. […] Thus, β-glucan affects M2 to M1 repolarization and drives anti-tumorigenic Th1 polarization.\nModulation of IFN-γ and IL-4 production of vehicle- and β-glucan-treated M2 macrophages was then evaluated. […] Thus, M2 macrophages derived from β-glucan-treated monocytes are M1-like in high binder subjects.\nM2 macrophages from 4 high binders and 4 low binders were prepared and evaluated for their ability to modulate CD4 T cell proliferation. The supernatants from the various CD4 T cell proliferation conditions were measured for IFN-γ by ELISA. Results shown in FIG. 10 are representative from 4 different experiments. Fold change over the IFN-γ levels produced in the co-cultures of vehicle-treated M2 macrophages and CD4 T cells are plotted for each of the 4 donors."}, "[2]": {"conditions": "T cells co-cultured with β-glucan-treated M2 macrophages relative to vehicle-treated"}, "[3]": {"conditions": "M1 macrophages, high binder, 25 μg/mL"}},
  "data": [
    {"substance": "β(1,6)-[poly-(1,3)-D-glucopyranosyl]-poly-β(1,3)-D-glucopyranose [β-glucan]", "values": [
      {"measurement": "Change in MFI on T cells: 4-1BB", "setting": "CD4 T cells; [2]", "value": "No change"},
      {"measurement": "Change in MFI on T cells: CD28", "setting": "CD4 T cells; [2]", "value": "No change"},
      {"measurement": "Change in MFI on T cells: CD40L", "setting": "CD4 T cells; [2]", "value": "No change"},
      {"measurement": "Change in MFI on T cells: CTLA-4", "setting": "CD4 T cells; [2]", "value": "No change"},
      {"measurement": "Change in MFI on T cells: PD1 (CD279)", "setting": "CD4 T cells; T cells co-cultured with β-glucan-treated M2 macrophages relative to vehicle-treated (day 9)", "value": "Increase"},
      {"measurement": "PD-L1 expression on the tumor cell lines", "setting": "[1]", "value": "enhances PD-L1 expression"},
      {"measurement": "CD86 median MFI", "setting": "M1 macrophages; [3]", "value": 2113},
      {"measurement": "CD163 (1) median MFI", "setting": "M1 macrophages; [3]", "value": 158},
      {"measurement": "CD163 (2) median MFI", "setting": "M1 macrophages; [3]", "value": 230},
      {"measurement": "CD206 median MFI", "setting": "M1 macrophages; [3]", "value": 816},
      {"measurement": "CD209 median MFI", "setting": "M1 macrophages; [3]", "value": 318},
      {"measurement": "CD274 (PD-L1) median MFI", "setting": "M1 macrophages; [3]", "value": 5563},
      {"measurement": "HLA-DR median MFI", "setting": "M1 macrophages; M1 macrophages, high binder, whole blood treated with 25 μg/mL soluble β-glucan 2 hours", "value": 667},
      {"measurement": "CD86 median MFI", "setting": "M1 macrophages; M1 macrophages, low binder", "value": 3179},
      {"measurement": "CD163 median MFI", "setting": "M1 macrophages; M1 macrophages, low binder", "value": 132},
      {"measurement": "M1 macrophage phenotype (panel of M1/M2-specific markers)", "setting": "M1 macrophages; β-glucan pretreatment of whole blood", "value": "did not affect M1 macrophage phenotype"},
      {"measurement": "Tumor-free Survivors (day 29)", "setting": "MC38 tumor cells", "value": "2/18"},
      {"measurement": "expression of PD-L1 on tumor cells", "setting": "MiaPaCa; β-glucan-treated M2 macrophages with addition of ABA, low binders", "value": "also increased expression"},
      {"measurement": "expression of PD-L1 on tumor cells", "setting": "MiaPaCa; β-glucan-treated M2 macrophages, high binders", "value": "increased expression"},
      {"measurement": "IFN-gamma levels in culture supernatants", "setting": "IFN-γ; M2 macrophage-CD4 T co-culture, FIG. 2D", "value": "concomitant increase in IFN-gamma production"},
      {"measurement": "IFN-γ production", "setting": "IFN-γ; co-cultures of β-glucan-treated M2 macrophages and CD4 T cells, high binders", "value": "significantly increased production"},
      {"measurement": "IFN-γ production", "setting": "IFN-γ; co-cultures under immunosuppressive conditions (TCM, IL-4), FIG. 4", "value": "significantly increased production"},
      {"measurement": "IFN-γ production", "setting": "IFN-γ; co-cultures without exogenous CD28 antibody, FIG. 8B", "value": "significantly increased production"},
      {"measurement": "IFN-γ production", "setting": "IFN-γ; low binder crossed-over with high binder's serum, FIG. 11B", "value": "significantly increased production"},
      {"measurement": "IFN-γ production", "setting": "IFN-γ; β-glucan-treated M2 macrophages, low binders", "value": "nor increased IFN-γ production"}
    ]}
  ]
}
